# Reference: US11801256B2, “Antidepressant-psilocybin co-treatment to assist psychotherapy” (Universitätsspital Basel, priority 2021, dated 2023)
# Tests used:
# [1] = Plasma drug concentrations and pharmacokinetic analyses; assay type: in vivo, human; settings: for elimination half-life / mean time to peak concentrations: psilocin glucuronide after 25 mg psilocybin
# Procedure: The blood samples were immediately centrifuged, and the plasma was subsequently stored at −80° C. until analysis.
# This allows to determine the concentrations of unconjugated psilocin and of psilocin glucuronide which corresponds to the difference between samples that were incubated with and without glucuronidase.
# healthy subjects [2] = assay: QTc time; assay type: in vivo, human; settings: 2.5 hours after psilocybin administration compared with 1 hour before
# Excerpt: Exclusion criteria: Chronic or acute medical condition, including a history of seizures. Current or previous major psychiatric disorder (e.g. psychotic disorders, mania/hypomania, anxiety disorders, and substance abuse). Psychotic disorder in first-degree relatives, not including psychotic disorders secondary to an apparent medical reason, e.g. brain injury, dementia, or lesions of the brain. Illicit substance use (with the exception of cannabis) more than 10 times or any time within the previous two months. History of an angle closure glaucoma. Pregnant or nursing women. Participation in another clinical trial (currently or within the last 30 days). […] A corrected QT time (QTc), calculated by Bazett's formula, of over 450 milliseconds in males and over 470 milliseconds in females. Tobacco smoking (>10 cigarettes/day). Consumption of alcoholic drinks (>10 drinks/week). Bodyweight <45 kg.
# healthy subjects [3] = assay: Autonomic measures (blood pressure, heart rate, body temperature, pupil size); settings: 25 mg psilocybin, healthy subjects
# Procedure: Study design: A double-blind, cross-over design was used with two conditions. […] 2) Pretreatment with placebo for 14 days with the last administration on the study day and administration of 25 mg psilocybin 2 hours later. Treatment order was random and counterbalanced. Between the 14 days pretreatment and the study day, there were at least 2 days washout until the next pretreatment phase began.
# Autonomic measures: Blood pressure, heart rate, and body temperature were recorded at baseline and repeatedly throughout the session. Blood pressure (systolic and diastolic) and heart rate were measured with an automatic oscillometric device. Body temperature was measured with an ear thermometer as previously described in detail (Hysek et al., 2010). Measures were taken before and at 0, 0.25, 0.5, 0.75, 1, 1.5, 2, 2.5, 3, 4, 5, 6 and 7 hours after psilocybin administration.
# Data analysis: Peak (Emax and/or Emin) or peak change from baseline (ΔEmax) values were determined for repeated measures. The values were then analyzed using paired T-tests using Statistica 12 software (StatSoft, Tulsa, OK, USA). The criterion for significance was p<0.05.
# healthy subjects [4] = assay: Adverse effects (list of complaints) and adverse events; assay type: in vivo, human
# Procedure: (§1) Treatment order was random and counterbalanced.
# Adverse effects (list of complaints): The list of complaints (LC) consists of 66 items offering a global score measuring physical and general discomfort (Zerssen, 1976). This scale yields a total adverse effects score and reliably measures physical and general discomfort. The LC list was administered 7 hours after administration of the drug with reference to complaints throughout the entire session.
# healthy subjects [5] = assay: Subjective effects, visual analog scales (VAS), clinical study; assay type: in vivo, human; settings: 25 mg psilocybin
# Procedure: as §1
# Study procedures: Subjects took part in a 2-hour screening session, two 9.5-hour test sessions where the psilocybin was administered and a 1-hour end-of-study visit. The subjects were informed about the study both verbally and by the approved written consent form regarding the altered state of consciousness, the study procedures and associated risks. The investigator and the subject both personally signed and dated the consent form as confirmation of consent. Subjects were screened using a semi-structured clinical interview for DSM-IV (Diagnostic and Statistical Manual Version 4) (Wittchen et al., 1997) to exclude those with a personal or family (first-degree relative) axis I major psychiatric disorder (acute or past) or a history of illicit drug dependence. Axis I major psychiatric disorders included also addiction disorders. The sessions were conducted in a calm standard hospital room. Only one research subject and one investigator were present during the test sessions. The test sessions began at 9 AM. The subjects then underwent baseline measurements. […] Psilocybin was administered at 11:00 AM. The outcome measures were repeatedly assessed for 7 hours. The subjects were under constant supervision by an investigator until 6 PM. Thus, the subjects were never alone during the 7 hours after drug administration. The subjects were sent home at 6:30 PM.
# Subjective Effects Questionnaire (Visual Analog Scales, VAS): VAS was repeatedly used to assess subjective alterations in consciousness over time. Single scales were presented as 100 mm horizontal lines marked with “not at all” on the left and “extremely” on the right. The following VAS items were used: “any drug effect”, “good drug effect”, “bad drug effect”, “drug liking”, “drug high”, “stimulated”, “fear”, “happy”, “content”, “trust”, “talkative”, “perception of time”, “open”, “concentration”, “speed of thinking”, “feeling close to others”, “wanting to be hugged”, “wanting to hug someone”, “desire to be alone”, “desire to be with others”, and “ego dissolution”. The VASs were presented as 100-mm horizontal lines (0-100%), marked from “not at all” on the left to “extremely” on the right. Some VASs were bidirectional (±50%). Marked from “not at all” on the left (−50), to “normal” in the middle (0), to “extremely” on the right (+50).
# The criterion for significance was p<0.05.
# [6] = after escitalopram pretreatment
# [7] = after psilocybin, after escitalopram pretreatment
# [8] = after psilocybin, after placebo pretreatment
structure (smiles),measurement,setting,value
CN(C)CCc1c[nH]c2cccc(O[C@@H]3O[C@H](C(=O)O)[C@@H](O)[C@H](O)[C@H]3O)c12 [psilocin glucuronide],elimination half-life,[1]; [6],5.2 h
same,mean time to peak concentrations,[1]; [6],3.74 h
same,elimination half-life,"[1]; after escitalopram pretreatment, listed as Glucuronidated psilocin",4.5 h
same,elimination half-life,[1]; after placebo pretreatment,4.5 h
same,mean time to peak concentrations,[1]; after placebo pretreatment,3.8 h
same,elimination half-life,"[1]; after placebo pretreatment, listed as Glucuronidated psilocin",4.1 h
same,mean time to peak concentrations,[1]; pretreatments not separated,3.2 to 3.4 h
"O=C(O)Cc1c[nH]c2cccc(O)c12 [4-HIAA, 4-hydroxyindole-3-acetic acid]",increase in metabolite concentrations over time,[1]; 4-HIAA compared to the glucuronide,faster
"CN(C)CCc1c[nH]c2cccc(OP(=O)(O)O)c12 [Psilocybin, psilocybin]",QTc times,healthy subjects [2],did not increase
same,body temperature,healthy subjects [3],moderately increased
same,diastolic blood pressure,healthy subjects [3],moderately increased
same,heart rate,healthy subjects [3],changed only minimally
same,pupil size,healthy subjects [3],moderately increased
same,rate-pressure product,healthy subjects [3],moderately increased
same,systolic blood pressure,healthy subjects [3],moderately increased
same,type and amount of adverse events following psilocybin administration,healthy subjects [4]; after escitalopram and placebo pretreatment,comparable
same,adverse aftereffects: abdominal bloating,healthy subjects [4]; [7],one
same,adverse aftereffects: flash backs,healthy subjects [4]; [7],one
same,adverse aftereffects: headaches,healthy subjects [4]; [7],six
same,adverse aftereffects: lack of energy,healthy subjects [4]; [7],one
same,adverse aftereffects: nausea,healthy subjects [4]; [7],one
same,adverse aftereffects: flash backs,healthy subjects [4]; [8],one
same,adverse aftereffects: headaches,healthy subjects [4]; [8],six
same,adverse aftereffects: nausea,healthy subjects [4]; [8],one
same,adverse aftereffects: vasovagal syncope,healthy subjects [4]; [8],one
same,bad drug effects,healthy subjects [5]; healthy subjects,only moderate
same,anxiety,healthy subjects [5]; healthy subjects (FIG. 6B),only moderate
CN(C)CCc1c[nH]c2cccc(O)c12 [psilocin],metabolism of psilocin,[1]; after 25 mg psilocybin,metabolized to approximately similar extents to inactive 4-HIAA and psilocin-glucuronide
same,half-life,"[1]; human, plasma, oral, non-glucuronidated (nonconjugated) psilocin after 25 mg psilocybin, read-out: elimination half-life (converted)",2 h
same,mean time to maximal plasma concentration,[1]; non-glucuronidated (nonconjugated) psilocin after 25 mg psilocybin,2 h
same,conjugation (glucuronidation) in plasma,[1]; samples analyzed with and without glucuronidase,A large proportion of psilocin underwent glucuronidation
